The record followed here is DBAASP.

Broadly, the MIC is the smallest concentration in the dilution series that meets the test's criterion for growth inhibition. A lower MIC goes with inhibition by little substance.

What all share (assay): ≥ marks a high value that may be exact or a test limit, other limits are often not marked, values filed in µg/mL are converted to µM
For test [1], the system named is Staphylococcus aureus ATCC 25923.
In test [2] the test system is Escherichia coli ATCC 25922.
Test [3] has as its system Pseudomonas aeruginosa ATCC 27853.

≈ marks a conversion by molar mass, not a printed value. Where “and” joins values, the source holds several entries; their conditions need not be identical. Equal values may be shown once.

`CC[C@H](C)[C@H](NC(=O)[C@@H](N)Cc1ccccc1)C(=O)N[C@@H](CCCN=C(N)N)C(=O)N[C@@H](CO)C(=O)N[C@@H](CC(C)C)C(=O)N[C@@H](Cc1ccccc1)C(=O)N[C@@H](Cc1ccccc1)C(=O)N[C@@H](Cc1ccccc1)C(N)=O` [FIRSLFFF]: the MIC in test [1] and in test [2] was more than 100 µM each time.

Consider `CC(C)C[C@H](NC(=O)[C@H](CC(C)C)NC(=O)[C@H](CCCCN)NC(=O)[C@H](CCCCN)NC(=O)[C@H](CC(C)C)NC(=O)[C@H](Cc1ccccc1)NC(=O)[C@H](CCCCN)NC(=O)[C@H](CC(C)C)NC(=O)[C@@H](N)Cc1ccccc1)C(N)=O` [FLKFLKKLL], for which the MIC in test [2] is 13.9 µM and 27.8 µM.

For the compound `CC(C)C[C@H](NC(=O)[C@H](CC(C)C)NC(=O)[C@H](CC(N)=O)NC(=O)[C@H](CCCCN)NC(=O)[C@H](CC(C)C)NC(=O)[C@H](CC(N)=O)NC(=O)[C@@H](N)C(C)C)C(=O)N[C@@H](CCCN=C(N)N)C(=O)O` [VNLKNLLR], the MIC in test [3] worked out at 32 µM (≈ 31 µg/mL).

On to `NC(=O)[C@H](Cc1c[nH]c2ccccc12)NC(=O)[C@H](CCCN=C(N)N)NC(=O)[C@H](Cc1ccc(O)cc1)NC(=O)[C@H](CCCN=C(N)N)NC(=O)[C@@H](N)Cc1c[nH]c2ccccc12` [WRYRW], for which the minimum inhibitory concentration (MIC) in test [1] was determined as 57.7 µM (≈ 49.9 µg/mL); in test [2] it was 115 µM (≈ 99.9 µg/mL).

Turning to `CC(C)[C@H](NC(=O)[C@H](CCCN=C(N)N)NC(=O)[C@@H](N)Cc1ccccc1)C(=O)N[C@H](C(=O)N[C@@H](Cc1c[nH]c2ccccc12)C(=O)N[C@@H](CCCN=C(N)N)C(=O)N[C@H](C(=O)N[C@@H](CCCCN)C(=O)N[C@@H](Cc1c[nH]c2ccccc12)C(=O)N[C@@H](Cc1c[nH]c2ccccc12)C(=O)N[C@@H](CCCCN)C(=O)NCC(N)=O)[C@@H](C)O)[C@@H](C)O` [FRVTWRTKWWKG], the minimum inhibitory concentration (MIC) in test [1] stood at 3 µM (≈ 4.95 µg/mL); in test [2] it was 6 µM (≈ 9.9 µg/mL).

In test [1], `CC[C@H](C)[C@H](NC(=O)[C@H](CCCCN)NC(=O)[C@H](CC(C)C)NC(=O)[C@@H](N)Cc1ccccc1)C(=O)N[C@@H](CC(C)C)C(=O)N[C@@H](CCCCN)C(=O)N[C@@H](CCCCN)C(=O)N[C@@H](CC(C)C)C(=O)N[C@@H](CC(C)C)C(N)=O` [FLKILKKLL] gave an MIC of 14.3 µM (≈ 16 µg/mL).

As to `CC(C)C[C@H](NC(=O)CNC(=O)[C@H](CCCCN)NC(=O)CNC(=O)[C@H](C)NC(=O)[C@H](C)N)C(=O)N[C@H](C(=O)N[C@@H](CO)C(=O)N[C@@H](CC(N)=O)C(=O)N[C@@H](CC(C)C)C(=O)N[C@@H](CC(C)C)C(=O)N[C@@H](CCC(=O)O)C(=O)N[C@@H](CCCCN)C(N)=O)C(C)C` [AAGKGLVSNLLEK], the MIC in test [1] was 49 µM (≈ 63.6 µg/mL); in test [2], 24.6 µM (≈ 31.9 µg/mL).

In the case of `CSCC[C@H](NC(=O)[C@H](CCCCN)NC(=O)[C@H](CCCCN)NC(=O)[C@H](CCCCN)NC(=O)[C@@H](N)CCCN=C(N)N)C(=O)N[C@@H](CCCCN)C(=O)N[C@@H](CCCCN)C(=O)N[C@@H](C)C(=O)N[C@@H](CC(C)C)C(=O)N[C@@H](CCC(N)=O)C(=O)N[C@@H](Cc1ccc(O)cc1)C(N)=O` [RKKKMKKALQY], the MIC in test [2] and in test [3] was more than 100 µM each time.

Turning to `CC[C@H](C)[C@H](NC(=O)[C@H](CCCN=C(N)N)NC(=O)[C@@H](N)CCCCN)C(=O)N[C@@H](CCCCN)C(=O)N[C@H](C(=O)N[C@@H](CC(C)C)C(=O)N[C@@H](CC(C)C)C(N)=O)[C@@H](C)O` [KRIKTLL], the MIC in test [1] and in test [2] was more than 70 µM in each case.

In turn, `CC(C)C[C@H](NC(=O)[C@H](Cc1ccccc1)NC(=O)[C@@H]1CCCN1C(=O)[C@H](Cc1ccc(O)cc1)NC(=O)[C@H](Cc1c[nH]c2ccccc12)NC(=O)[C@H](Cc1c[nH]c2ccccc12)NC(=O)[C@@H]1CCCN1C(=O)[C@H](Cc1ccccc1)NC(=O)[C@H](CCCN=C(N)N)NC(=O)[C@H](CCCN=C(N)N)NC(=O)[C@@H](N)C(C)C)C(=O)N[C@@H](CCCN=C(N)N)C(=O)N[C@@H](CCCN=C(N)N)C(N)=O` [VRRFPWWYPFLRR] yielded an MIC in test [2] of 4 µM (≈ 7.51 µg/mL).
